Source: the supplement of paper PMC11451515

Tested on: P12-Ichikawa
Experiment: cell viability relative to DMSO control; higher = less cytotoxic
Conditions: 48 h
Procedure, shortened: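 Leukemia cells (NOMO1 or SEM, 500 cells/well; P12-Ichikawa, 1000 cells/well) were seeded in 5 μl in 1536-well plates after at least four passages of adaptation to each medium. They received library compounds in DMSO by pin dosing, 11 threefold points from 47 μM to 0.79 nM. Luminescence with CellTiter-Glo One was read after 48 h at 37°C. Viability is stated per plate relative to DMSO wells, with cell-free wells as background.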

[1] = HPLM + 10% dialyzed FBS, 0.000781 µM
[2] = HPLM + 10% dialyzed FBS, 0.00234 µM
[3] = HPLM + 10% dialyzed FBS, 0.00702 µM
[4] = HPLM + 10% dialyzed FBS, 0.0211 µM
[5] = HPLM + 10% dialyzed FBS, 0.0632 µM
[6] = HPLM + 10% dialyzed FBS, 0.19 µM
[7] = HPLM + 10% dialyzed FBS, 0.569 µM
[8] = HPLM + 10% dialyzed FBS, 1.71 µM
[9] = HPLM + 10% dialyzed FBS, 5.12 µM
[10] = HPLM + 10% dialyzed FBS, 15.4 µM
[11] = HPLM + 10% dialyzed FBS, 46.1 µM
[12] = RPMI 5 mM glucose + 10% FBS, 0.000781 µM
[13] = RPMI 5 mM glucose + 10% FBS, 0.00234 µM
[14] = RPMI 5 mM glucose + 10% FBS, 0.00702 µM
[15] = RPMI 5 mM glucose + 10% FBS, 0.0211 µM
[16] = RPMI 5 mM glucose + 10% FBS, 0.0632 µM
[17] = RPMI 5 mM glucose + 10% FBS, 0.19 µM
[18] = RPMI 5 mM glucose + 10% FBS, 0.569 µM
[19] = RPMI 5 mM glucose + 10% FBS, 1.71 µM
[20] = RPMI 5 mM glucose + 10% FBS, 5.12 µM
[21] = RPMI 5 mM glucose + 10% FBS, 15.4 µM
[22] = RPMI 5 mM glucose + 10% FBS, 46.1 µM
[23] = RPMI 5 mM glucose + 10% dialyzed FBS, 0.000781 µM
[24] = RPMI 5 mM glucose + 10% dialyzed FBS, 0.00234 µM
[25] = RPMI 5 mM glucose + 10% dialyzed FBS, 0.00702 µM
[26] = RPMI 5 mM glucose + 10% dialyzed FBS, 0.0211 µM
[27] = RPMI 5 mM glucose + 10% dialyzed FBS, 0.0632 µM
[28] = RPMI 5 mM glucose + 10% dialyzed FBS, 0.19 µM
[29] = RPMI 5 mM glucose + 10% dialyzed FBS, 0.569 µM
[30] = RPMI 5 mM glucose + 10% dialyzed FBS, 1.71 µM
[31] = RPMI 5 mM glucose + 10% dialyzed FBS, 5.12 µM
[32] = RPMI 5 mM glucose + 10% dialyzed FBS, 15.4 µM
[33] = RPMI 5 mM glucose + 10% dialyzed FBS, 46.1 µM

Row | SMILES | cell viability [1] | cell viability [2] | cell viability [3] | cell viability [4] | cell viability [5] | cell viability [6] | cell viability [7] | cell viability [8] | cell viability [9] | cell viability [10] | cell viability [11] | cell viability [12] | cell viability [13] | cell viability [14] | cell viability [15] | cell viability [16] | cell viability [17] | cell viability [18] | cell viability [19] | cell viability [20] | cell viability [21] | cell viability [22] | cell viability [23] | cell viability [24] | cell viability [25] | cell viability [26] | cell viability [27] | cell viability [28] | cell viability [29] | cell viability [30] | cell viability [31] | cell viability [32] | cell viability [33]
1 | CC(C)(O)c1cc2nc(-c3cnc(N)nc3)nc(N3CCOCC3)c2s1 | 120% | 121% | 122% | 125% | 118% | 111% | 108% | 86.2% | 74.1% | 72.6% | 70% | 117% | 127% | 121% | 112% | 114% | 103% | 81.8% | 66.5% | 61% | 49.4% | 48.8% | – | – | – | – | – | – | – | – | – | – | –
2 | COc1cc(C(=O)NS(=O)(=O)c2ccccc2C)ccc1Cc1cn(C)c2ccc(NC(=O)OC3CCCC3)cc12 | 73.2% | 81.6% | 85.9% | 90.7% | 89.8% | 86.6% | 86.5% | 89.1% | 88.8% | 104% | 72.3% | 82.7% | 78.3% | 79.2% | 88.1% | 77.8% | 83.6% | 84.4% | 85% | 90.1% | 87% | 5.73% | 76.9% | 74% | 76.6% | 81.6% | 83.8% | 78.3% | 89.6% | 82.3% | 92.5% | 87.4% | 44.2%
3 | CCOc1ccc(Cc2cc([C@@H]3O[C@H](CO)[C@@H](O)[C@H](O)[C@H]3O)ccc2Cl)cc1 | 123% | 124% | 120% | 84.8% | 125% | 134% | 129% | 123% | 127% | 126% | 123% | – | – | – | – | – | – | – | – | – | – | – | – | – | – | – | – | – | – | – | – | – | –
4 | COc1cc(CNC(=O)CCCC/C=C/C(C)C)ccc1O | 108% | 99.4% | 106% | 102% | 102% | 101% | 13.3% | 11% | 11% | 12.3% | 14.1% | 104% | 105% | 109% | 106% | 104% | 119% | 95.2% | 12.2% | 12.2% | 10.1% | 10.5% | 111% | 103% | 106% | 108% | 116% | 112% | 32.9% | 21.3% | 22.2% | 14.3% | 15.7%
5 | NC(=O)NO | 85.4% | 102% | 100% | 100% | 94.3% | 99.6% | 102% | 104% | 72.4% | 28.8% | 2.02% | 83.7% | 103% | 91.4% | 90.8% | 98.7% | 98.5% | 91.2% | 90.9% | 77.1% | 43.6% | 0.136% | 88.4% | 88.3% | 87.7% | 91.4% | 92.2% | 96% | 94.1% | 87.2% | 65.2% | 22.9% | 2.61%
6 | C[C@H]1O[C@H](C[C@H](O)[C@@H]1O)O[C@H]2[C@@H](O)C[C@@H](O[C@@H]2C)O[C@H]3[C@@H](O)C[C@@H](O[C@@H]3C)O[C@H]4CC[C@@]5(C)[C@H](CC[C@@H]6[C@@H]5C[C@@H](O)[C@]7(C)[C@H](CC[C@]67O)C/8=C/C(=O)OC8)C4 | 116% | 128% | 123% | 111% | 33.5% | 13.3% | 12.7% | 12.8% | 14.3% | 20.5% | 17.2% | 115% | 123% | 124% | 110% | 86.5% | 58.1% | 12.3% | 10.4% | 9.93% | 12.4% | 11.7% | 113% | 111% | 117% | 110% | 76.4% | 32.5% | 13.3% | 10.7% | 8.02% | 8.92% | 6.92%
7 | CCOC1=CC=CC=C1N\2C(=O)C3=C(C=CC=C3)\N=C2C(C)N4CCN(CC4)C(=O)COC5=CC=C(Cl)C=C5 (stereo unspecified) | 121% | 120% | 116% | 115% | 107% | 111% | 72.3% | 15.9% | 8.63% | 6.31% | 4.74% | 121% | 126% | 119% | 110% | 117% | 111% | 94.4% | 51.8% | 9.87% | 5.31% | 4.69% | – | – | – | – | – | – | – | – | – | – | –
8 | NC(=O)OCC(COC(N)=O)c1ccccc1 | – | – | – | – | – | – | – | – | – | – | – | 118% | 123% | 120% | 118% | 126% | 113% | 136% | 115% | 116% | 113% | 108% | – | – | – | – | – | – | – | – | – | – | –
9 | Cc1onc(-c2ccccc2)c1C(=O)N[C@@H]1C(=O)N2[C@@H]1SC(C)(C)[C@@H]2C(=O)[O-].[Na+] | 109% | 116% | 120% | 108% | 116% | 113% | 113% | 104% | 86.4% | 81.3% | 77.2% | 114% | 117% | 111% | 111% | 130% | 122% | 112% | 85.3% | 71% | 71.8% | 68.2% | 104% | 112% | 131% | 139% | 123% | 100% | 92.7% | 89.6% | 75.9% | 62.4% | 67.8%
10 | Cc1nc(Nc2n[nH]c3c2CN(C(=O)N[C@H](CN(C)C)c2ccccc2)C3(C)C)c2sccc2n1 | 84.9% | 84.7% | 76.4% | 81% | 75.1% | 73.5% | 72.6% | 53.9% | 52.3% | 45.4% | 15.6% | 82.3% | 81.7% | 70.8% | 60% | 62.3% | 59.3% | 53.4% | 38.5% | 41.4% | 27.7% | 12.8% | 80% | 81.4% | 77.2% | 72.1% | 63.6% | 56% | 51.4% | 40.6% | 38.8% | 32.3% | 15.8%
11 | O.O.CCN1CCN(C(=O)N[C@H](C(=O)N[C@H]2[C@@H]3SC\C(=C(/N3C2=O)C(O)=O)CSC4=NN=N[N]4C)C5=CC=C(O)C=C5)C(=O)C1=O | 92.1% | 102% | 103% | 11.8% | 105% | 103% | 112% | 95.9% | 106% | 108% | 108% | 86.8% | 99.4% | 90.8% | 12.4% | 103% | 100% | 112% | 96.9% | 98.7% | 99.6% | 105% | 84.8% | 88% | 98.1% | 22.6% | 102% | 101% | 93.3% | 97.4% | 97.7% | 102% | 99.5%
12 | OC[C@H]1O[C@@H]2[C@@H](OC\3=N\C(=N)\C=C/[N@@]23)[C@@H]1O | 113% | 119% | 107% | 105% | 95.6% | 44.3% | 24.7% | 13.5% | 10.7% | 7.98% | 8.28% | 116% | 118% | 118% | 105% | 93.2% | 47.3% | 22.5% | 12.1% | 8.81% | 7.28% | 6.52% | 109% | 122% | 114% | 117% | 92.4% | 53.2% | 28.6% | 17% | 11.6% | 9.01% | 7.41%
13 | CCN1CCCC1CNC(=O)c1cc([S+](N)(=O)[O-])ccc1OC (stereo unspecified) | 111% | 115% | 119% | 108% | 125% | 121% | 116% | 118% | 113% | 120% | 109% | – | – | – | – | – | – | – | – | – | – | – | 107% | 117% | 121% | 117% | 126% | 117% | 124% | 126% | 124% | 128% | 117%
14 | CCN1CCN(C(=O)Cc2ccc(Nc3ncc(F)c(Nc4ccc(C(=O)Nc5ccccc5Cl)cc4)n3)cc2)CC1 | 107% | 105% | 108% | 108% | 116% | 118% | 116% | 107% | 60.1% | 48.1% | 26.2% | 105% | 108% | 112% | 111% | 115% | 122% | 111% | 114% | 73.2% | 50.9% | 41% | 119% | 111% | 112% | 125% | 131% | 121% | 107% | 107% | 79.2% | 52.6% | 45.6%
15 | COc1cc(N2CCC(N(C)C)CC2)ccc1Nc1ncc(Cl)c(Nc2ccccc2P(C)(C)=O)n1 | 110% | 115% | 110% | 113% | 117% | 115% | 87.9% | 40.5% | 13.6% | 18.3% | 30.7% | 112% | 118% | 123% | 122% | 121% | 104% | 102% | 82.2% | 11.9% | 12.5% | 23.6% | 111% | 113% | 117% | 124% | 126% | 127% | 107% | 106% | 30.8% | 19.3% | 31.5%
16 | Cc1ncc([N+](=O)[O-])n1CC(C)O (stereo unspecified) | 105% | 116% | 111% | 110% | 105% | 117% | 114% | 111% | 116% | 125% | 103% | 94.3% | 109% | 101% | 104% | 90.4% | 113% | 105% | 115% | 104% | 106% | 102% | 102% | 112% | 106% | 104% | 95.2% | 112% | 117% | 113% | 111% | 106% | 106%
